From patent US11091478B2 (Fochon Pharmaceuticals, Ltd., priority 2017, dated 2021)
Like-named read-outs stand apart in the source and are kept apart here.

Legend:
DOHH2 cells = experiment: Cell proliferation assay (MTS), DOHH2 cells, 120 h; format: cell-based
Excerpt: (§1) Cell Proliferation Assays
(§2) MTS testing kit was purchased from Promega. The RPMI-1640, Fetal bovine serum and Penicillin-Streptomycin were purchased from Gibco. Dimethyl sulfoxide (DMSO) was purchased from Sigma.
(§3) To investigate whether a compound is able to inhibit the activity of BCL-2 in cells, a mechanism-based assay using DOHH2 (DSMZ No.® ACC 47) and RS4;11 (ATCC® CRL-1873™) cell was developed. In this assay, inhibition of Bcl-2 was detected by the inhibition of DOHH2 cells proliferation. DOHH2 cells were cultured in culture flasks to 40-80% confluence in RPMI-1640 plus 10% fetal bovine serum. Cells were collected and plated onto 96-well plates at desired cell density (5000 cells/well). Plates were incubated overnight at 37° C., with 5% CO2 to adhere. Compounds were added to the plates, and the final compound concentrations were 10000, 3333, 1111, […], 124, 41, 14, 4.6 and 1.5 nM. Plates plated with DOHH2 or RS4;11 cells were placed at 37° C., with 5% CO2 for 120 h (DOHH2) or 72 h (RS4;11) respectively. 20 μl MTS/100 μl medium mixture solution were added to each well and incubate the plates for exactly 2 hours. The reaction was stopped by adding 25 μl 10% SDS per well. Measure absorbance at 490 nm and 650 nm (reference wavelength). IC50 was calculated using GraphPad Prism 5.0.
(§4) Select compounds prepared as described above were assayed according to the biological procedures described herein.

RS4;11 cells = experiment: Cell proliferation assay (MTS), RS4;11 cells, 72 h; format: cell-based
Excerpt: as §1, §2, §3, §4

Row | Compound | IC50 (DOHH2 cells; Homo sapiens, DOHH-2, 120 h) | IC50 (DOHH2 cells) | also measured
1 | CC1(C)CCC(CN2CCN(c3ccc(C(=O)NS(=O)(=O)c4cc5c(c([N+](=O)[O-])c4)N[C@H](C4CCC(C)(O)CC4)CO5)c(Oc4cnc5[nH]ccc5c4)c3)CC2)=C(c2ccc(Cl)cc2)C1 (single isomer, unassigned) [Example 2-3A] | 16 nM |  | IC50 (RS4;11 cells; Homo sapiens, RS4-11, 72 h): 1 nM
2 | CC1(C)CCC(CN2CCN(c3ccc(C(=O)NS(=O)(=O)c4cc5c(c([N+](=O)[O-])c4)N[C@H](C4CCC(C)(O)CC4)CO5)c(Oc4cnc5[nH]ccc5c4)c3)CC2)=C(c2ccc(Cl)cc2)C1 (single isomer, unassigned) [Example 2-3B] |  |  | IC50 (DOHH2 cells; Homo sapiens, DOHH-2): 33 nM; IC50 (RS4;11 cells; Homo sapiens): 8 nM
3 | CC1(C)CCC(CN2CCN(c3ccc(C(=O)NS(=O)(=O)c4cc5c(c([N+](=O)[O-])c4)N[C@H](CC4CCC(O)CC4)CO5)c(Oc4cnc5[nH]ccc5c4)c3)CC2)=C(c2ccc(Cl)cc2)C1 (single isomer, unassigned) [Example 2-239A] |  | 5 nM | IC50 (RS4;11 cells; Homo sapiens, RS4-11, 72 h): 1 nM
4 | CC1(C)CCC(CN2CCN(c3ccc(C(=O)NS(=O)(=O)c4cc5c(c([N+](=O)[O-])c4)N[C@H](CC4CCC(O)CC4)CO5)c(Oc4cnc5[nH]ccc5c4)c3)CC2)=C(c2ccc(Cl)cc2)C1 (single isomer, unassigned) [Example 2-239B] |  | 1 nM | IC50 (RS4;11 cells): 1 nM
5 | CC1(C)CCC(CN2CCN(c3ccc(C(=O)NS(=O)(=O)c4cc5c(c([N+](=O)[O-])c4)N[C@H](C4CCC(O)CC4)CO5)c(Oc4cnc5[nH]ccc5c4)c3)CC2)=C(c2ccc(Cl)cc2)C1 (single isomer, unassigned) [Example 2-240A] |  | 5 nM | IC50 (RS4;11 cells; Homo sapiens, RS4-11, 72 h): 1 nM
6 | CC1(C)CCC(CN2CCN(c3ccc(C(=O)NS(=O)(=O)c4cc5c(c([N+](=O)[O-])c4)N[C@H](C4CCC(O)CC4)CO5)c(Oc4cnc5[nH]ccc5c4)c3)CC2)=C(c2ccc(Cl)cc2)C1 (single isomer, unassigned) [Example 2-240B] |  | 1 nM | IC50 (RS4;11 cells): 1 nM
7 | CC1(C)CCC(CN2CCN(c3ccc(C(=O)NS(=O)(=O)c4cc5c(c([N+](=O)[O-])c4)N[C@@H](CC4CCC(O)CC4)CO5)c(Oc4cnc5[nH]ccc5c4)c3)CC2)=C(c2ccc(Cl)cc2)C1 (single isomer, unassigned) [Example 2-244A] |  | 7 nM | IC50 (RS4;11 cells; Homo sapiens, RS4-11, 72 h): 3 nM
8 | CC1(C)CCC(CN2CCN(c3ccc(C(=O)NS(=O)(=O)c4cc5c(c([N+](=O)[O-])c4)N[C@@H](CC4CCC(O)CC4)CO5)c(Oc4cnc5[nH]ccc5c4)c3)CC2)=C(c2ccc(Cl)cc2)C1 (single isomer, unassigned) [Example 2-244B] |  | 1 nM | IC50 (RS4;11 cells): 3 nM
9 | CC1(C)CCC(CN2CCN(c3ccc(C(=O)NS(=O)(=O)c4cc5c(c([N+](=O)[O-])c4)N[C@H](CN4CCOCC4)C5)c(Oc4cnc5[nH]ccc5c4)c3)CC2)=C(c2ccc(Cl)cc2)C1 [Example 1-1, (S)-2-((1H-pyrrolo[2,3-b]pyridin-5-yl)oxy)-4-(4-((4′-chloro-5,5-dimethyl-3,4,5,6-tetrahydro-[1,1′-biphenyl]-2-yl)methyl)piperazin-1-yl)-N-((2-(morpholinomethyl)-7-nitroindolin-5-yl)sulfonyl)benzamide] | 80 nM |  | IC50 (RS4;11 cells; Homo sapiens, RS4-11, 72 h): 48 nM
10 | CC1(C)CCC(CN2CCN(c3ccc(C(=O)NS(=O)(=O)c4cc5c(c([N+](=O)[O-])c4)N[C@@H](c4ccc(Cl)cn4)CO5)c(Oc4cnc5[nH]ccc5c4)c3)CC2)=C(c2ccc(Cl)cc2)C1 [Example 2-198B, (S)-2-((1H-pyrrolo[2,3-b]pyridin-5-yl)oxy)-4-(4-((4′-chloro-5,5-dimethyl-3,4,5,6-tetra-hydro-[1,1′-biphenyl]-2-yl)methyl)piperazin-1-yl)-N-((3-(5-chloropyridin-2-yl)-5-nitro-3,4-dihydro-2H-benzo[b][1,4]oxazin-7-yl)sulfonyl)benzamide] | 444 nM |  | 
11 | CC1(C)CCC(CN2CCN(c3ccc(C(=O)NS(=O)(=O)c4cc5c(c([N+](=O)[O-])c4)N[C@@H](Cc4ccc(Cl)cc4)CO5)c(Oc4cnc5[nH]ccc5c4)c3)CC2)=C(c2ccc(Cl)cc2)C1 [Example 2-207, (S)-2-((1H-pyrrolo[2,3-b]pyridin-5-yl)oxy)-4-(4-((4′-chloro-5,5-dimethyl-3,4,5,6-tetra-hydro-[1,1′-phenyl]-2-yl)methyl)piperazin-1-yl)-N-((3-(4-chlorobenzyl)-5-nitro-3,4-dihydro-2H-benzo[b][1,4]oxazin-7-yl)sulfo-nyl)benzamide] | 402 nM |  | 
12 | CC1(C)CCC(CN2CCN(c3ccc(C(=O)NS(=O)(=O)c4cc5c(c([N+](=O)[O-])c4)N[C@H](c4ccc(Cl)cn4)CO5)c(Oc4cnc5[nH]ccc5c4)c3)CC2)=C(c2ccc(Cl)cc2)C1 [Example 2-217, (R)-2-((1H-pyrrolo[2,3-b]pyridin-5-yl)oxy)-4-(4-((4′-chloro-5,5-dimethyl-3,4,5,6-tetra-hydro-[1,1′-biphenyl]-2-yl)methyl)piperazin-1-yl)-N-((3-(5-chloropyridin-2-yl)-5-nitro-3,4-dihydro-2H-benzo[b][1,4]oxazin-7-yl)sulfonyl)benzamide] | 715 nM |  | 
13 | CC1(C)CCC(CN2CCN(c3ccc(C(=O)NS(=O)(=O)c4cc5c(c([N+](=O)[O-])c4)O[C@H](c4ccc(Cl)cn4)CN5)c(Oc4cnc5[nH]ccc5c4)c3)CC2)=C(c2ccc(Cl)cc2)C1 [Example 2-218, (S)-2-((1H-pyrrolo[2,3-b]pyridin-5-yl)oxy)-4-(4-((4′-chloro-5,5-dimethyl-3,4,5,6-tetra-hydro-[1,1′-biphenyl]-2-yl)methyl)piperazin-1-yl)-N-((2-(5-chloropyridin-2-yl)-8-nitro-3,4-dihdyro-2H-benzo[b][1,4]oxazin-6-yl)sulfonyl)benzamide] | 507 nM |  | 
14 | CC1(C)CCC(CN2CCN(c3ccc(C(=O)NS(=O)(=O)c4cc5c(c([N+](=O)[O-])c4)N[C@H](CC4CCC(C)(O)CC4)CO5)c(Oc4cnc5[nH]ccc5c4)c3)CC2)=C(c2ccc(Cl)cc2)C1 (stereo partly drawn) [Example 2-219, (R)-2-((1H-pyrrolo[2,3-b]pyridin-5-yl)oxy)-4-(4-((4′-chloro-5,5-dimethyl-3,4,5,6-tetra-hydro-[1,1′-biphenyl]-2-yl)methyl)piperazin-1-yl)-N-((3-((4-hydroxy-4-methylcyclo-hexyl)methyl)-5-nitro-3,4-dihydro-2H-benzo [b][1,4]oxazin-7-yl)sulfonyl)benzamide] | 662 nM |  | 
15 | CC1(C)CCC(CN2CCN(c3ccc(C(=O)NS(=O)(=O)c4cc5c(c([N+](=O)[O-])c4)N[C@@H](C4CCNCC4)CO5)c(Oc4cnc5[nH]ccc5c4)c3)CC2)=C(c2ccc(Cl)cc2)C1 [Example 2-228, (S)-2-((1H-pyrrolo[2,3-b]pyridin-5-yl)oxy)-4-(4-((4′-chloro-5,5-dimethyl-3,4,5,6-tetra-hydro-[1,1′-biphenyl]-2-yl)methyl)piperazin-1-yl)-N-((5-nitro-3-(piperidin-4-yl)-3,4-dihydro-2H-benzo[b][1,4]oxazin-7-yl)sulfonyl)benzamide] | 48 nM |  | 
16 | CC1(C)CCC(CN2CCN(c3ccc(C(=O)NS(=O)(=O)c4cc5c(c([N+](=O)[O-])c4)N[C@@H](C4CCC(O)CC4)CO5)c(Oc4cnc5[nH]ccc5c4)c3)CC2)=C(c2ccc(Cl)cc2)C1 (stereo partly drawn) [Example 2-245B, (S)-2-((1H-pyrrolo[2,3-b]pyridin-5-yl)oxy)-4-(4-((4′-chloro-5,5-dimethyl-3,4,5,6-tetra-hydro-[1,1′-biphenyl]-2-yl)methyl)piperazin-1-yl)-N-((3-(4-hydroxycyclohexyl)-5-nitro-3,4-dihydro-2H-benzo[b][1,4]oxazin-7-yl)sulfonyl)benzamide] |  | 1 nM | 
17 | CN1CCN(CC[C@@H]2CNc3cc(S(=O)(=O)NC(=O)c4ccc(N5CCN(CC6=C(c7ccc(Cl)cc7)CC(C)(C)CC6)CC5)cc4Oc4cnc5[nH]ccc5c4)cc([N+](=O)[O-])c3N2)CC1 [Example 4-5, (R)-2-((1H-pyrrolo[2,3-b]pyridin-5-yl)oxy)-4-(4-((4′-chloro-5,5-dimethyl-3,4,5,6-tetra-hydro-[1,1′-biphenyl]-2-yl)methyl)piperazin-1-yl)-N-((2-(2-(4-methylpiperazin-1-yl)ethyl)-8-nitro-1,2,3,4-tetrahydroquinoxalin-6-yl)sulfonyl)benzamide] | 232 nM |  | 
18 | CC1(C)CCC(CN2CCN(c3ccc(C(=O)NS(=O)(=O)c4cc5c(c([N+](=O)[O-])c4)N[C@@H](C4CC4)CO5)c(-n4ncc5nc6[nH]ccc6cc54)c3)CC2)=C(c2ccc(Cl)cc2)C1 [Example 6-2, (S)-4-(4-((4′-chloro-5,5-dimethyl-3,4,5,6-tetrahydro-[1,1′-biphenyl]-2-yl)methyl)piperazin-1-yl)-N-((3-cyclopropyl-5-nitro-3,4-dihydro-2H-benzo[b][1,4]oxazin-7-yl)sulfonyl)-2-(pyrazolo[4,3-b]pyrrolo[3,2-e]pyridin-1(5H)-yl)benzamide] | 264 nM |  | 
19 | CC1(C)CCC(CN2CCN(c3ccc(C(=O)NS(=O)(=O)c4cc5c(c([N+](=O)[O-])c4)N[C@@H](Cc4ccccn4)CO5)c(-n4ncc5nc6[nH]ccc6cc54)c3)CC2)=C(c2ccc(Cl)cc2)C1 [Example 6-3, (S)-4-(4-((4′-chloro-5,5-dimethyl-3,4,5,6-tetrahydro-[1,1′-biphenyl]-2-yl)methyl)piperazin-1-yl)-N-((5-nitro-3-(pyridin-2-ylmethyl)-3,4-dihydro-2H-benzo[b][1,4]oxazin-7-yl)sulfonyl)-2-(pyrazolo[4,3-b]pyrrolo[3,2-e]pyridin-1(5H)-yl)benzamide] | 185 nM |  | 
